Assay results taken from the RepoRT retention time repository.

Test: Waters ACQUITY UPLC HSS T3, 0.4 mL/min; A: water + 0.1% formic acid; B: acetonitrile + 0.1% formic acid; gradient (min/%B) 0/5 1.5/5 12/95 14/95 14.01/100 17/100
Conditions: stereoisomer not certain

| SMILES | LC retention time [min] |
| --- | --- |
| CCCCCCCCCCCCCCCCCCOC(=O)CC(O)(CC(=O)O)C(=O)O (stereo not drawn) | 10.5 |
| CCCCCCCCCCCCCCCC(=O)OC1C(C)OC(OC2C(OCCCC)OC(CO)C(O)C2O)C(O)C1O (stereo not drawn) | 10.4 |
| CCC=CCC=CCC=CCCCCCCCC(=O)OC(COC(=O)CCCCCCCCCCCCCCC)COP(=O)(O)OCC(O)CO (stereo not drawn) | 13.9 |
| CCCCCCCCCCCCCCCCCCCCCCCCC(=O)NCC(=O)O | 9.77 |
| CC1CCC(C(C)(O)COC2OC(CO)C(O)C(O)C2O)CC1O (stereo not drawn) | 5.08 |
| CCCC(=O)OCCC(S)CCC (stereo not drawn) | 0.838 |
| C[N+](C)(C)CC(O)CC(=O)[O-] (stereo not drawn) | 0.75 |
| CC1=CC(c2c(O)c(C(=O)CCc3ccccc3)c(O)c(C3C=C(C)CCC3C(C)C)c2O)C(C(C)C)CC1 (stereo not drawn) | 11 |
| CN1C2CCC1(O)C(O)C(O)C2O (stereo not drawn) | 1.05 |
| CC(N)C(=O)O (stereo not drawn) | 0.806 |
| Oc1cc(O)c2c(c1)OC(c1cc(O)c(O)c(O)c1)C(O)C2 (stereo not drawn) | 1.05 |
| CC(C)=CC1c2[nH]c3ccccc3c2CC2C(=O)N3CCCC3C(=O)N21 (stereo not drawn) | 3.99 |
| CC(C)=CCCC(C)(OC1OC(CO)C(O)C(O)C1O)C1CCC2(C)C1C(O)CC1C3(C)CCC(OC4OC(CO)C(O)C(O)C4O)C(C)(C)C3CCC12C (stereo not drawn) | 9.82 |
| CC1(C)CCC2(C(=O)O)CCC3(C)C(=CCC4C5(C)CC(O)C(OC(=O)C=Cc6ccc(O)cc6)C(C)(C)C5CCC43C)C2C1 (stereo not drawn) | 11 |
| CCCCCC(O)C=CC=CCC=CCC=CCCCC(=O)NCCS(=O)(=O)O (stereo not drawn) | 4.09 |
| CCC(C(=O)CC(C)C1=C(O)C(=O)C2C3CCC4CC(OC5OC(C(=O)O)C(O)C(O)C5O)CCC4(C)C3CCC12C)C(C)C (stereo not drawn) | 11 |
| CCCCCC(O)C=CC1C(O)CC(O)C1CC(=O)CCC(=O)O (stereo not drawn) | 8.51 |
| CCC(C)C(N)C(=O)NC(CCC(=O)O)C(=O)O (stereo not drawn) | 1.05 |
| CC12CCC(O)(CC1OC1OC(CO)C(O)C(O)C1O)C(C)(C)O2 (stereo not drawn) | 3.99 |
| O=c1[nH]cnc2nc[nH]c12 | 1.1 |
| CC(=CC(=O)OC1OC(CO)C(O)C(O)C1O)CCC=C(C)CCC(O)C(C)(C)O (stereo not drawn) | 9.03 |
| COC1CCC(=O)N1 (stereo not drawn) | 0.851 |
| CC1CCC2(NC1)OC1CC3C4CC=C5CC(OC6OC(CO)C(OC7OC(C)C(O)C(O)C7O)C(O)C6O)CCC5(C)C4CCC3(C)C1C2C (stereo not drawn) | 9.86 |
| CCC=CCC=CCC=CCC=CCC=CCC=CCCC(=O)OCC(O)COP(=O)(O)OCCN (stereo not drawn) | 4.65 |
| NC(CCC(=O)O)C(=O)O (stereo not drawn) | 0.786 |
| CC1=CC(=O)C2(C(C)C)C(=O)C3=C(C(O)C4OC(=O)C35CCCC(C)(C)C45)C12 (stereo not drawn) | 10.6 |

| SMILES | LC retention time [min] |
| --- | --- |
| Nc1nc2c(c(=O)[nH]1)NC(C(O)C(O)COP(=O)(O)OP(=O)(O)OP(=O)(O)O)C(O)N2O (stereo not drawn) | 5.68 |
| C[N+](C)(C)CCOP(=O)([O-])OCC(O)CO (stereo not drawn) | 0.761 |
| CC(CCC(=O)NCCS(=O)(=O)O)C1CCC2C3C(O)C(O)C4CC(O)CCC4(C)C3CCC12C (stereo not drawn) | 4.43 |
| Cc1c(C)c(C(=O)C(C)O)n2c1CCC2 (stereo not drawn) | 4.98 |
| CC(=O)NC(CC(C)C)C(=O)NC(CC(C)C)C(=O)NC(C=O)CCCN=C(N)N (stereo not drawn) | 12.2 |
| C[N+](C)(C)CCO | 0.706 |
| O=C(O)CC1CCC(=O)C1CC=CCCOC1OC(CO)C(O)C(O)C1O (stereo not drawn) | 0.755 |
| CC(C)=CCCC(C)(O)C1CCC2(C)C1C(O)CC1C3(C)CCC(OC4OC(COC5OCC(O)C(O)C5O)C(O)C(O)C4O)C(C)(C)C3CCC12C (stereo not drawn) | 10.8 |
| O=C(Oc1cc(O)cc(O)c1C(=O)O)c1ccc(O)c(O)c1 | 1.15 |
| CC1=CC(=O)CC(C)(C)C1(O)CCC(C)OC1OC(COC2OCC(O)(CO)C2O)C(O)C(O)C1O (stereo not drawn) | 4.44 |
| NC(=O)c1cccnc1 | 1.06 |
| Cc1cc(O)c2c(c1O)C(=O)C1=C(C2=O)C(=O)C2C(O)C1C1C(O)CC(=O)C3=C(O)c4c(O)cc(C)c(O)c4C(=O)C321 (stereo not drawn) | 1.11 |
| CCCCCCOC(=O)CC(C)S (stereo not drawn) | 0.838 |
| C=CCC=CCC=CCCCCCCCC(C(=O)OC)C(=O)C(=CC(=O)OC)OC (stereo not drawn) | 5.18 |
| CN1CC(c2ccc(O)cc2)OC1(C)C (stereo not drawn) | 4.98 |
| O=C(OCC1OC(Oc2ccc(C=Cc3cc(O)cc(O)c3)cc2O)C(O)C(O)C1O)c1cc(O)c(O)c(O)c1 (stereo not drawn) | 1.11 |
| CC1(C)OC2(C)CC(O)C1CC2OC1OC(CO)C(O)C(O)C1O (stereo not drawn) | 3.99 |
| NCC1CCC(C(=O)O)CC1 (stereo not drawn) | 0.828 |
| C=C1C(=O)OC2C1CC=C1CC(C)(CCC1OO)C2O (stereo not drawn) | 6.31 |
| CC(C)OC(=O)C(C(=O)OC(C)C)=C1SCCS1 | 1.14 |
| COC1(CCC(C)COC2OC(CO)C(O)C(O)C2O)OC2CC3C4CCC5CC(=O)CCC5(C)C4CCC3(C)C2C1C (stereo not drawn) | 9.93 |
| CC(=O)OCC(N)C(=O)O (stereo not drawn) | 0.786 |
| CC(C)N | 0.706 |
| C[N+](C)(C)CCCC(=O)[O-] | 0.772 |
| CC(=O)C1OC1(O)C(C)=CC=CC(C)=CC=CC=C(C)C=CC=C(C)C=CC1=C(C)CCCC1(C)C (stereo not drawn) | 10.4 |
| CCCCCCC=CCCCCCCCC(=O)OCC(O)COP(=O)(O)OCCN (stereo not drawn) | 4.91 |

| SMILES | LC retention time [min] |
| --- | --- |
| CC(O)C1CCC2C3CCC4=CC(=O)CCC4(C)C3CCC12C (stereo not drawn) | 11.8 |
| Nc1ccnc(=O)[nH]1 | 1.02 |
| CC=CC=CC=CC1=NCCCC1 | 9.09 |
| COc1ccc(COC2OC(CO)C(O)C(O)C2OS(=O)(=O)O)cc1 (stereo not drawn) | 0.842 |
| CCCCCC(=O)CCC1C=CC(=O)C1CC=CCCCC(=O)O (stereo not drawn) | 4.99 |
| CCCCCC(=O)CCOC1OC(CO)C(O)C(O)C1O (stereo not drawn) | 4.89 |
| CCCCCCCCCCCCCCCCCC(=O)NC(Cc1ccc(O)cc1)C(=O)O (stereo not drawn) | 9.13 |
| CCCCCC1OC(=O)C(C(C)CC)N(C)C(=O)C2CCCN2C(=O)C(C(C)C)OC(=O)C(Cc2ccccc2)N(C)C(=O)C(C(C)C)NC(=O)C1C (stereo not drawn) | 9.85 |
| CC(=CC(O)C1OC1(C)C)C1CCC2(C)C1C(O)CC1C3(C)CCC(O)C(C)(C)C3C(OC3OC(CO)C(O)C(O)C3O)CC12C (stereo not drawn) | 9.9 |
| COC(=O)C1(OC(C)=O)CC23CCC4C(C)(O)CCCC4(C)C2CCC1C3 (stereo not drawn) | 5.17 |
| CNC(C)(C)C(=O)O | 1.02 |
| C[N+](C)(C)CCOP(=O)([O-])O | 0.761 |
| CCCCCC(N)C(=O)O (stereo not drawn) | 0.772 |
| CC1CCC2(C(=O)O)CCC3(C)C(=CCC4C5(C)CCC(OC(=O)c6ccccc6)C(C)(C)C5C(=O)CC43C)C2C1C (stereo not drawn) | 11 |
| C=Cc1c2[nH]c(c1C)Cc1[nH]c(c(CCC(=O)O)c1C)Cc1[nH]c(c(C)c1CCC(=O)O)Cc1[nH]c(c(C)c1C=C)C2 | 4.78 |
| NCCCCC(=O)O | 1.02 |
| CCO[SiH](CCCSCCC[SiH](OCC)OCC)OCC | 1.02 |
| CC(CCC(=O)NCCS(=O)(=O)O)C1CCC2C3C(O)CC4CC(O)CCC4(C)C3CC(O)C12C (stereo not drawn) | 4.43 |
| CCCCCC=CCC=CCC=CCCCCC(=O)OC(COC(=O)CCCCCCCCCCCCCCC)COP(=O)(O)OCC(O)CO (stereo not drawn) | 13.9 |
| CCCCCC(O)C=CC1OC(O)CC(O)C1CC=CCC(=O)O (stereo not drawn) | 8.51 |
| CSCCC(N)C(=O)NC(CCCN=C(N)N)C(=O)O (stereo not drawn) | 3.75 |
| CC1(C)OC2(CO)CCC1CC2OC1OC(CO)C(O)C(O)C1O (stereo not drawn) | 3.99 |
| CCC=CCC(O)C(O)C=CC=CC=CC=CC(O)CC=CCCC(=O)O (stereo not drawn) | 5.01 |
| CCC=CCC=CCC(O)C=CC=CC=CC(O)CCCC(=O)O (stereo not drawn) | 4.99 |
| CCCCC=CCCCCCCCC(=O)OCC(COP(=O)(O)OCC(N)C(=O)O)OC(=O)CCCCCCCCCCC (stereo not drawn) | 5.43 |
| OCCOCCOCCOCCOCCOCCOCCO | 3.99 |

| SMILES | LC retention time [min] |
| --- | --- |
| CSCCC(N)C(=O)O (stereo not drawn) | 1.04 |
| CCCCCON=O | 1.02 |
| CC1=CC(O)CC(C)(C)C1(O)C=CC(C)OC1OC(COC2OCC(O)(CO)C2O)C(O)C(O)C1O (stereo not drawn) | 4.44 |
| CCCCCC(=O)OCCC(CCC)SC (stereo not drawn) | 3.91 |
| CC1(C)C2C(O)CC(C)(C2O)C1OC1OC(CO)C(O)C(O)C1O (stereo not drawn) | 3.99 |
| CCC(C)C(=O)OC1CC(C)(O)C=C2C=CC(C)C(CCC3CC(O)CC(=O)O3)C21 (stereo not drawn) | 5.18 |
| CC1(OC2OC(CO)C(O)C(O)C2O)CC(O)C2(C(C)(C)O)CC12 (stereo not drawn) | 3.99 |
| C=C(CCC)C(N)C(=O)O (stereo not drawn) | 0.818 |
| CC12CCC(=O)C=C1CCC1C2C(O)CC2(C)C(C(O)CC(=O)O)CCC12 (stereo not drawn) | 5.01 |
| CC(CP(CCCCCCS(=O)(=O)[O-])CCCCCCS(=O)(=O)[O-])P(CCCCCCS(=O)(=O)[O-])CCCCCCS(=O)(=O)[O-] (stereo not drawn) | 1.02 |
| C=C1CCC2C(OC(=O)C2(O)CO)C2C(C)C(=O)CC12 (stereo not drawn) | 6.31 |
| Nc1ncnc2c1ncn2C1OC(COP(=O)(O)O)C(O)C1O (stereo not drawn) | 0.934 |
| CCC(C)C(N)C(=O)O (stereo not drawn) | 1.31 |
| CC(=O)OCC[N+](C)(C)C | 0.772 |
| CC1CCC2(C(=O)O)CCC3(C)C(=CC(=O)C4C5(C)CCC(OC(=O)c6ccccc6)C(C)(C)C5CCC43C)C2C1C (stereo not drawn) | 11 |
| CC1OC(CC(=O)O)Cc2c1c(O)c1c(O)c(-c3cc(=O)c4c(=O)c5c(c(=O)c=4c3=O)C(C)OC(CC(=O)O)C5)cc(O)c1c2O (stereo not drawn) | 1.05 |
| CC(=O)c1cnccn1 | 1.06 |
| CC(C)CC(NC(=O)OC(C)(C)C)C(=O)O (stereo not drawn) | 3 |
| CCCC(=O)OC(CC(=O)[O-])C[N+](C)(C)C (stereo not drawn) | 3 |
| CC(C)(OC1OC(CO)C(O)C(O)C1O)C1CCC(O)(CO)CC1 (stereo not drawn) | 5.08 |
| CC(=O)C1CCC2C3CC=C4CC(O)CCC4(C)C3CCC12C (stereo not drawn) | 11.8 |
| NCCS(=O)(=O)O | 0.777 |
| CCCCCC=CCC(O)CC=CC=CC(SCC(N)C(=O)O)C(O)CCCC(=O)O (stereo not drawn) | 9.02 |
| COC(=O)C12CCC(C)(C)CC1C1=CCC3C4(C)CCC(OC(=O)C=Cc5ccc(OC)cc5)C(C)(C)C4CCC3(C)C1(C)CC2 (stereo not drawn) | 13.1 |
| CC1CCC2(C(=O)O)CCC3(C)C(=CCC4C5(C)CC(O)C(OC(=O)C=Cc6ccc(O)cc6)C(C)(C)C5CCC43C)C2C1C (stereo not drawn) | 11 |
